{"source": "patent US20150296786A1", "about": "“SYNERGISTIC COMBINATION OF A ZOXAMIDE COMPOUND AND ONE OF DCOIT OR OIT FOR DRY FILM PROTECTION” (ROHM AND HAAS COMPANY, priority 2012, published 2015)", "key": {"[1]": {"system": "Stichococcus bacillaris SAG 379-1a / CCAP 379/1a", "test": "Algal efficacy testing of dry paint films (modified ASTM 5589, 6-well plates)", "format": "cell-based", "settings": "504 h, 3 weeks, visible algal growth vs blank, pass level ≧75%", "experimental": "(§1) Sample preparation for antimicrobial testing was performed as follows:\n(§2) Slurries containing 33% antimicrobial active ingredient (Zoxamide) were post added to a white, acrylic/silicone based outdoor paint free of biocides to give a total active ingredient concentration of 10000 and 1000 ppm respectively. KATHON™ 893T (100% OIT) and ROCIMA™ 200 (20% DCOIT) were post added to a white, acrylic/silicone based outdoor paint free of biocides to give a total active ingredient concentration of 10000 and 1000 ppm respectively. These paints were then diluted with an antimicrobial free acrylic/silicone based paint and mixed to prepare targeted concentrations of antimicrobial compounds for the testing. The total biocides concentrations tested were 125, 250, 500, 1000, 2000 and 5000 ppm. After biocides addition or dilution, the paints were mixed 90 seconds with the horse power shaker (AXEL 75M3372/Agitateur SO-10MI) until uniformity was achieved. Paints containing different antimicrobial compounds at the same levels were mixed together in order to obtain the desired ratio of antimicrobial compounds. After one day, the paints were applied to Schleicher & Schuell filter paper at 280μm wet film thickness and dried for 3 days at room temperature avoiding direct exposure to sunlight. Square discs (1.6 cm×1.6 cm) were cut out from each panel and were used as the substrate for algal efficacy tests. This sample size allowed for an agar border when the sample disc was placed into the well of the test plate.\n(§3) Algal efficacy was tested according to modified ASTM 5589 which is a standard accelerated test method for determining resistance of various coatings (including paints) to algal defacement. To accommodate for high-throughput screening, this method was scaled down from petri dishes to 6-well plates. Bold Modified Basal Freshwater Nutrient Solution was used as growth medium. A single coated filter paper coupon was placed with a pair of sterile forceps at the center of the agar plug (on top) with the painted surface facing upwards. Algal inoculums were prepared by mixing equal concentrations (1×10^6 cfu/ml) and equal volumes of exponentially growing algae cultures.\n(§4) Each well that contains a tested coupon was inoculated with 1750 μl of algal suspensions (1×10^6 cfu/ml) making sure that the whole surface (paint film as well as the agar surrounding it) was evenly covered. The plates were incubated at room temp (21° C.-25° C.) with cyclic exposure to light and dark phases, for a period of three weeks.\n(§5) At the end of the three week incubation period, the samples were scored for percent inhibition regarding visible algal growth compared to the blank sample (0% inhibition).\n(§6) The Synergy Index calculation was performed as follows.\n(§7) The SI is calculated based on F. C. Kull et.\n(§8) SI value of <1 in the formula indicates a synergism of the blended biocides exists.\n(§9) The minimal targeted inhibition was set at 75%, meaning a coupon with at least 75% algal growth inhibition was considered as a pass."}, "[2]": {"system": "Chlorella sp. ATCC 7516", "test": "Algal efficacy testing of dry paint films (modified ASTM 5589, 6-well plates)", "format": "cell-based", "settings": "504 h, 3 weeks, visible algal growth vs blank, pass level ≧75%; for inhibition at 1000 ppm: total conc 1000 ppm in paint", "experimental": "as §1, §2, §3, §4, §5, §6, §7, §8, §9"}}}
{"smiles": "CCCCCCCCn1sc(Cl)c(Cl)c1=O", "note": "[DCOIT, 4,5-dichloro-2-n-octyl-4-isothiazolin-3-one]", "values": [{"measurement": "inhibition at 1000 ppm", "setting": "[1]; total conc 1000 ppm in paint", "value": 85, "unit": "%"}, {"measurement": "inhibition at 1000 ppm", "setting": "[2]", "value": 85, "unit": "%"}]}
{"smiles": "CCCCCCCCn1sccc1=O", "note": "[OIT, 2-n-octyl-4-isothiazolin-3-one]", "values": [{"measurement": "inhibition at 1000 ppm", "setting": "[2]", "value": 95, "unit": "%"}]}
{"smiles": "CCC(C)(NC(=O)c1cc(Cl)c(C)c(Cl)c1)C(=O)CCl", "note": "(centres unmarked) [Zoxamide]", "values": [{"measurement": "inhibition at 5000 ppm", "setting": "[1]; total conc 5000 ppm in paint", "value": 45, "unit": "%"}, {"measurement": "inhibition at 5000 ppm", "setting": "[2]; total conc 5000 ppm in paint", "value": 60, "unit": "%"}]}
